Test results as given in US7666996B2, “Casein derived peptides and uses thereof” (priority 2000, dated 2010).

Tests used:
[1] = test system: Non-Obese Diabetic (NOD) mice; test: Glucosuria in Non-Obese Diabetic (NOD) mice; assay type: in vivo; conditions: for Healthy/Total (sugar not detected in urine): female NOD mice, 100 μg synthetic peptide once weekly for 5 weeks, evaluated after 25 weeks; for Urine Sugar: individual healthy NOD mice, after 25 weeks; for prevention of glucosuria (in words): 100 μg once weekly for 5 weeks, 25 weeks
Procedure: Juvenile (Type I, IDDM) diabetes in Non-Obese Diabetic (NOD) mice:
Peptides derived from natural casein: NOD mice are a commonly used model for research of autoimmune disease and human Juvenile Diabetes. Six week old female NOD mice received either one or two injections per week of 100 μg of peptides derived from natural casein, for a total of 5 or 10 treatments. Control mice received no treatment. The severity of disease was determined according to glucosuria, which was measured using Combi test sticks [Gross, D. J. et al (1994), Diabetology, 37:1195]. Results were expressed as the percent of glucosuria-free mice in each sample over a 365-day period.
Synthetic peptides derived from casein: In another experiment, 6 week old female NOD mice received one injection per week of 100 μg of Synthetic peptides derived from casein for a total of 5 treatments. Control mice received no treatment. Results were expressed as the number of healthy mice in the various treated groups.

[2] = test system: Non-Obese Diabetic (NOD) mice; test: Intraperitoneal Glucose Tolerance Test (IPGTT) in NOD mice; assay type: in vivo; conditions: individual healthy NOD mice, 25 weeks after peptides; for IPGT TEST 60 min. post load plasma glucose: 60 min after i.p. glucose 1 g/kg; for IPGT TEST 0 min. (pre-load) plasma glucose: before glucose load
Procedure: Intraperitoneal Glucose Tolerance Test (IPGTT): The glucose tolerance test is the definitive method for investigating glucose metabolism and diabetic tendencies in mammals. Twenty five (25) weeks after receiving Synthetic peptides derived from casein, response to a glucose load was assessed with an intraperitoneal glucose tolerance test. Glucose injection consisted of 1 g/kg body weight. Glycemic values were determined from blood drawn prior to test (0 minutes) and 60 minutes after loading.

[3] = test system: female C57B⅙j mice fed an atherogenic diet; test: Diet-induced hypercholesterol/hyperlipidemia in mice; assay type: in vivo; conditions: one week post 1 mg i.p.; for HDL: diet control 54.5; for LDL: diet control 326; for Total cholesterol (TC): diet control 393
Procedure: The ability of synthetic casein derived peptides to reduce cholesterol levels in 7-week old female C57B⅙j mice was assessed after feeding an atherogenic diet. The mice were divided into groups of 8. One control group was fed a normal diet. A second control group was fed the modified Thomas Hartroft diet containing cholate (#TD 88051: Teklad, Madison, Wis.) [Gerber, D. W. et al., Journal of Lipid Research. 42, 2001]. The remaining experimental groups were all fed the modified Thomas Hartroft diet.
Cholestrol blood levels were determined according to Roche Cholesterol Assay based on Roeschlou & Allin enzymatic method (Roche, Inc., Germany).

[4] = test system: HIV-1 (CEM lymphocyte cells); test: Inhibition of HIV-1 infection of CEM lymphocytes; assay type: cell-based; conditions: for HIV-1 infection level, HIV-P24 antigen: 7 days post infection, control 0.52; for Cell counts: virus pre-treated 3 hours, infected control 1.06×10^6
Procedure: Peptides: Peptides [either peptides derived from natural casein or synthetic peptides derived from casein (2-26 amino acids in length, see table 3)] supplied as lyophilized powder were resuspended in RPMI complete medium and added to cell cultures at a final concentrations of 50 to 1000 μg per ml.
Cells: Several types of freshly isolated human cells (primary cells) and cell lines are known to be susceptible to in vitro HIV-1 infection, although essentially any cell displaying even low surface levels of the CD4 molecule can be considered a potential target for HIV-1 infection. Two commonly used human cell lines which are highly sensitive for HIV-1 infection were chosen, CEM and Sup-T1.
CEM is a human T4-lymphoblastoid cell line initially derived by G. E. Foley et al. [(1965), Cancer 18:522] from peripheral blood buffy coat of a person with acute lymphoblastic leukemia. These cells were continuously maintained in suspension in medium, and have been used widely for analysis of infectivity, antiviral agents and neutralizing antibodies.
Virus: The HIV virus strain employed was HIV-1IIIB, originally designated HTLV-IIIB. Concentrated culture fluids of peripheral blood from several patients with AIDS or related diseases were used to establish a permanent productive infection in H-9 cells. This subtype B virus has high capacity to replicate in human T-cell lines. Viral titer was 5.38 ng per ml in stock solution.
HIV-1 P^24 antigen capture assay: An HIV-1 P^24 Antigen capture assay kit employed was designed to quantitate the HIV-1 P^24 core antigen, which is proportionally related to the degree of viral production in cells. This kit was purchased from the AIDS Vaccine program of the SAIC-NCI-Frederick Cancer Research Institute, P.O. Box B, Frederick, Md. 21702, USA and included 96 well plates coated with monoclonal antibody to HIV-1 P^24, primary antibody-rabbit anti-HIV P^24 serum, secondary antibody-Goat anti-rabbit-IgG (H+L) peroxidase conjugated antibody, TMB peroxidase substrate system and lysed HIV-1 P^24 standard. The HIV-1 P^24 antigen capture assay was analyzed by Organon-Technica ELISA reader at 450 nm with a reference at 650 nm.
HIV-1 P^24 antigen capture ELISA: HIV infection was measured with an indirect enzyme immunoassay which detects HIV-1 P^24 core antigens in tissue culture media. Tissue culture supernatant was reacted with primary rabbit anti-HIV-1 P^24 antigen and visualized by peroxidase conjugated goat anti rabbit IgG. The reaction was terminated by adding 4N H2SO4, wherein the intensity of the color developed is proportional to the amount of HIV-1 antigen present in the tissue culture supernatant.
HIV infection of human cultured CD4 cells: For longer incubations, the cells (CEM, Sup-T1) were preincubated with several increasing concentrations of peptides derived from natural casein (50-1000 μg per ml) or synthetic peptides derived from casein (10-500 μg per ml) for 24 (for synthetic and natural peptides) and 48 (only for natural peptides) hours and HIV-1IIIB (45 pg per ml final concentration) was added to each well thereafter. For the shorter incubations (3 hours), HIV-1IIIB was preincubated with the peptides for 3 hours and then added to cells (5000 cells/well) in tissue culture plates. Controls were IF (Infected, cells cultured with HIV-1 and without peptides), UIF (Uninfected, cells cultured without HIV-1 and without peptides) and UIF +Ch (Uninfected+peptides derived from natural casein, cells cultured in the presence of peptides derived from natural casein {50-1000 μg per ml}) to test the effect of peptides derived from natural casein and synthetic peptides derived from casein on cell viability and growth. Cells were counted for viability and proliferation rate on day 7, 10 and day 14 post infection (the day of P^24 antigen culture supernatant harvest). Cells and tissue culture supernatants (media) were harvested and lysed immediately in 1/10 volume of 10% Triton X-100. […]

[5] = test system: irradiated, bone marrow transplanted mice; test: Leukocyte and platelet reconstitution in bone marrow transplant recipient mice; assay type: in vivo; conditions: for white blood cell reconstitution (in words): F1 mice, 750 cGy, 1 mg i.v., days 5 and 7 post-reconstitution
Procedure: Leukocyte and platelet reconstitution in bone marrow transplant recipient Mice: BALB/c mice were sub-lethally irradiated at a source to skin distance of 70 cm, dosage of 50 cGy per minute, for a total of 600 cGy. The irradiated mice were […] casein, synthetic peptides derived from casein (13-26 amino acids, see Table 3 above), or human serum albumin (controls), following a double-blinded protocol. Leukocyte reconstitution was determined according to cell count in peripheral blood collected at indicated intervals from 6 to 12 days post treatment. Platelet reconstitution was determined by cell count in blood collected from the retro orbital plexus, into EDTA-containing vials, at indicated intervals from day 6 to day 15 post treatment. […]
In a third series of experiments, the mice were irradiated (800 cGy), reconstituted and injected intraperitoneally with 1.0 mg synthetic peptides derived from casein (peptides 3a and 4P, representing the first 6 and 12 amino acids of the N terminus of αS1 casein, respectively—see Table 3 above) daily, on days 4, 5, 6 and 7 post-transplantation. Platelet reconstitution was assayed at 10 and 12 days post-transplantation.
In a fourth series of experiments, F1 mice were irradiated (750 cGy), reconstituted with syngeneic bone marrow, and injected intravenously 24 hours later with 1 mg per mouse of synthetic peptides derived from casein representing amino acids 1-22 of the N terminus of αS1 casein. In addition, 2 (two) groups of mice were treated each with a natural fraction of αS1 casein position 1-23, and a fraction of peptides derived from natural κ-casein, representing amino acid coordinates 106-169 of κ-casein (SEQ ID NO: 27). WBC counts were conducted on days 5, 7, 10 and 12 post-transplantation.

[6] = 800 cGy, 1.0 mg i.p. daily, days 4-7

In the case of “RPKHPIKHQGLPQEVLNENLL [synthetic peptide, N-terminal 21 amino acids of αS1 casein]”, the “Healthy/Total (sugar not detected in urine)” value [1] is reported as 2/5, the “Urine Sugar” value [1] is reported as “Negative” and the “IPGT TEST 60 min. post load plasma glucose” value [2] is reported as 138 mg/dL.

With “RPKHPIKHQGL [2a, synthetic peptide, N-terminal 11 amino acids of αS1 casein]” the “prevention of glucosuria (in words)” value [1] was “highly effective”, the “Healthy/Total (sugar not detected in urine)” value [1] was 4/5 and the “Urine Sugar” value [1] was “Negative”. For the same substance, the HDL [3] was 41 mg/dL, the LDL [3] was 221 mg/dL and the “Total cholesterol (TC)” value [3] was 279 mg/dL.

With “RPKHP [3P, synthetic peptide, N-terminal 5 amino acids of αS1 casein]” the “HIV-1 infection level, HIV-P24 antigen” value ([4]; 10 μg per ml) was 0.26 ng P^24 Ag per ml, the Cell counts ([4]; 10 μg per ml) was 1.17×10^6 and the “HIV-1 infection level, HIV-P24 antigen” value ([4]; 25 μg per ml) was 0.18 ng P^24 Ag per ml. The Cell counts ([4]; 25 μg per ml) was 1.26×10^6, the HDL [3] was 42.5 mg/dL and the LDL [3] was 247 mg/dL. For the same substance, the “Total cholesterol (TC)” value [3] was 308 mg/dL.

“RPKHPIKH [Y, synthetic peptide, N-terminal 8 amino acids of αS1 casein]” was tested, and the “Healthy/Total (sugar not detected in urine)” value [1] was 1/5, the “Urine Sugar” value [1] was “Negative” and the “IPGT TEST 60 min. post load plasma glucose” value [2] was 138 mg/dL. For the same substance, the “IPGT TEST 0 min. (pre-load) plasma glucose” value [2] was 121 mg/dL.

With “RPKHPIKHQGLPQ [A, synthetic peptide, N-terminal 13 amino acids of αS1 casein]” the “Healthy/Total (sugar not detected in urine)” value [1] was 2/5 and the “Urine Sugar” value [1] was “Negative”.

With “RPKHPIKHQGLPQE [B, synthetic peptide, N-terminal 14 amino acids of αS1 casein]” the “Healthy/Total (sugar not detected in urine)” value [1] was 2/5, the “Urine Sugar” value [1] was “Negative” and the “IPGT TEST 0 min. (pre-load) plasma glucose” value [2] was 130 mg/dL.

In the case of “α-S1 1-23: gel filtration fraction of natural casein peptides: amino acid positions 1-23 of the N-terminus of αS1 casein (SEQ ID NO: 22) (RPKHPIKHQGLPQEVLNENLLRF)”, the “white blood cell reconstitution (in words)” value [5] is reported as “dramatic enhancement”.

With “RPKHPIKHQGLPQEVL [D, synthetic peptide, N-terminal 16 amino acids of αS1 casein]” the “Healthy/Total (sugar not detected in urine)” value [1] was 2/5 and the “Urine Sugar” value [1] was “Negative”.

For “RPKHPIKHQGLP [3a, synthetic peptide, N-terminal 12 amino acids of αS1 casein]”, the “prevention of glucosuria (in words)” value [1] was “highly effective”, the “Healthy/Total (sugar not detected in urine)” value [1] was 3/5 and the “Urine Sugar” value [1] was “Negative”. For the same substance, the “increase in platelet counts over control, 10 days post transplantation” value [5, 6] was “up to 35.5%”, the “increase in platelet counts over control, 12 days post transplantation” value [5, 6] was “up to 13.5%” and the “platelet counts, 12 days post transplantation” value [5, 6] was 622000 mL⁻¹. For the same substance, the “platelet counts, 10 days post transplantation” value ([5]; 800 cGy, 1.0 mg i.p. daily, days 4-7, control 169) was 229000 mL⁻¹.

For “RPKHPIKHQGLPQEV [C, synthetic peptide, N-terminal 15 amino acids of αS1 casein]”, the “peripheral white blood cell counts, day 10” value ([5]; BALB/c, 600 cGy, 1 mg per mouse intraperitoneal, control 1.67) was 1.72 ×10^6 cells per ml and the “peripheral white blood cell counts, day 12” value ([5]; BALB/c, 600 cGy, 1 mg per mouse intraperitoneal, control 4.64) was 6.54 ×10^6 cells per ml.

“RPKHPIKHQGLPQEVLNENLLRF [synthetic peptide, N-terminal 23 amino acids of αS1 casein]” was tested, and the “Healthy/Total (sugar not detected in urine)” value [1] was 2/5, the “Urine Sugar” value [1] was “Negative” and the “IPGT TEST 60 min. post load plasma glucose” value [2] was 143 mg/dL.

“κ-casein (106-169): gel filtration fraction comprising a peptide representing amino acid positions 106-169 of κ-casein” was tested, and the “white blood cell reconstitution (in words)” value [5] was “dramatic enhancement”.

“RPKHPIKHQG [1a, synthetic peptide, N-terminal 10 amino acids of αS1 casein]” was tested, and the “Healthy/Total (sugar not detected in urine)” value [1] was 1/5, the “Urine Sugar” value [1] was “Negative” and the “IPGT TEST 60 min. post load plasma glucose” value [2] was 106 mg/dL. For the same substance, the “IPGT TEST 0 min. (pre-load) plasma glucose” value [2] was 88 mg/dL.
